Tests used:
[1] = system: stabilized aptamer (RNA, aptamer) GGCGAUACCAGCCGAAAGGCCCUUGGCAGCGCC; assay: X-ray crystallography; settings: 30 mM NaCl, 5 mM MgCl2, 5 mM HEPES pH 7.5, 0.4 mM RNA, 1 mM ligand
[2] = system: aptamer-B (theophylline aptamer) (RNA, aptamer, 3'-terminal (A)10 spacer is DNA (positions 34-43)) GGCGAUACCAGCCGAAAGGCCCUUGGCAGCGUC; assay: surface plasmon resonance; settings: 150 mM NaCl, 5 mM MgCl2; 10 mM HEPES pH 7.4, 0.01-0.1% DMSO, 25°C
[3] = system: aptamer-F (theophylline aptamer) (RNA, aptamer) GGCGAUACCAGCCGAAAGGCCCUUGGCAGCGUC; assay: fluorescence strand invasion assay; settings: 10 mM NaCl, 5 mM MgCl2; 20 mM HEPES pH 7.5, 0.01% Tween-20; 37°C; inhibits invasion by BBQ-650 2'-F quencher strand (Q-invader); apparent
[4] = system: pentaloop aptamer (RNA, aptamer) GGCGAUACCAGCGAAACACGCCCUUGGCAGCGUC; assay: X-ray crystallography, soaked crystal; settings: 30 mM KCl, 10 mM MgCl2 (RNA refolding); Fab-RNA crystals soaked in 1.1 mM TAL2, 1 h; ligand not precisely placed
[5] = system: mutant aptamer-B (U24C) (RNA, aptamer, 3'-terminal (A)10 spacer is DNA (positions 34-43)) GGCGAUACCAGCCGAAAGGCCCUCGGCAGCGUC; assay: surface plasmon resonance; settings: 150 mM NaCl, 5 mM MgCl2; 10 mM HEPES pH 7.4, 0.01-0.1% DMSO, 25°C; highest concentration 0.1-2.0 µM
[6] = crystals from cacodylate pH 6.5, PEG 8K, MPD

| SMILES | binding [1, 6] | Kd [2] [nM] | IC50 [3] [nM] | binding [4] | binding ([1]; 0.2 M Ca(OAc)2 in reservoir, crystals from PEG 3350, 20°C) | binding [5] |
| --- | --- | --- | --- | --- | --- | --- |
| COc1cc2ncnc(N3CCN(CCCCO)CC3)c2cc1OC | yes | 280 | 1920 |  |  |  |
| COc1cc2c(O)ncnc2cc1OCCCN1CCCCC1 | yes | 9.1 | 700 | yes |  |  |
| COc1cc2c(O)ncnc2cc1OCC1CCN(C)CC1 | yes | 23 | 1160 |  |  |  |
| Cn1c(=O)cnc2c(N)nc(=O)[nH]c21 |  | 2 | 460 |  | yes |  |
| Cn1c(=O)c2[nH]cnc2n(C)c1=O | yes | 670 | 1990 |  |  | no |

Source: publication PMC9860313 (2022)
